Data set [1] has as its system miR-22. Conditions: published data, cited from earlier work.
Data set [2] concerns miR-22. In words: miR-22 expression in HCT116 cells (qRT-PCR). Format: cell-based. Conditions: 24 hours, RA 10 μM, butyrate 5 mM, propionate 10 mM, valerate 10 mM, SAHA 5 μM. As for the experimental part: To study the effect of RA and HDAC inhibitors on miR-22 expression, HCT116 cells were treated with RA, butyrate, propionate, valerate, and SAHA. The SCFA concentrations used were within physiologic ranges^35.
(§1) Total RNA was extracted with TRIzol Reagent (Invitrogen, Carlsbad, Calif.), and cDNA was generated using High Capacity RNA-to-cDNA Kit (Applied Biosystems, Carlsbad, Calif.). qRT-PCR was performed on ABI 7900HT Fast Real time PCR system using Power SYBR® Green PCR Master Mix (Applied Biosystems, Carlsbad, Calif.).
(Quantitative PCR measures a nucleic acid by following its amplification.)

For data set [3], the system named is HCT116 colon cancer cells. In words: MTT cell viability assay in HCT116 cells. Format: cell-based. Conditions: RA 10 μM, butyrate 5 mM, SAHA 5 μM; for Cell viability: 48 hours, propionate 10 mM, valerate 10 mM, vs. DMSO. On the procedure:
Cell viability was monitored by MTT assay.
HCT116 cells (American Type Culture Collection) were maintained in McCoy's 5a medium from Gibco (Life Technologies, Carlsbad, Calif.) with 10% FBS. Cells were plated (1×10^6 cells per 60-mm dish, 2×10^5 cells per 6-well plates, and 1×10^5 cells per 24-well plates) overnight prior to treatment or transfection.
Cells were stained with 3-(4,5-dimethylthiazol-2-O-2,5-diphenyltetrazolium bromide (MTT, Sigma-Aldrich, St. Louis, Mo.) and measured at 570 nm with Microplate Reader (Biotek, Winooski, Vt.).

Data set [4] has as its system CYCLIN A2, HDAC1, HDAC4, SIRT1. As to the kind of experiment: Protein levels in Huh7 liver cancer cells.
The test system of data set [5] is HDAC1, HDAC4, SIRT1, cyclin A2 (CCNA2). As to the kind of experiment: Western blot of protein deacetylases and cyclin A2 in HCT116 cells. The format is cell-based. As for the experimental part: HCT116 cells were transfected with either an miR-22 mimic or a scramble control, and 48 hours later the protein levels of HDAC4, SIRT1, and cyclin A2 were measured (FIG. 3B). The expression of all three proteins was reduced by treatment with the miR-22 mimic.
(§2) Western blot and immunoprecipitation were performed as described previously^22. Specific antibodies used included anti-NUR77, RARβ, SIRT1, β-actin, and IgG (Santa Cruz Biotechnology, Santa Cruz, Calif.), phospho-JNK1/2, total JNK1/2, cleaved caspase3, HDAC1 and HDAC4 (Cell Signaling Technology, Beverly, Mass.), and CCNA2 (Novus Biologicals, Littleton, Colo.). To detect protein acetylation of NUR77 and RARβ, cell lysates (500 μg) were incubated with anti-NUR77, RARβ, or IgG antibody (1 μg), precipitated by adding Dynabeads (30 μl, Life Technologies, Carlsbad, Calif.), and probed with anti-Acetyl-lysine antibody (Cell Signaling Technology, Beverly, Mass.). To study the interaction between RARβ and NUR77, whole-cell lysates were precipitated with anti-RARβ or NUR77 antibody followed by Western blot using anti-NUR77 or RARβ antibody.
A general note: Immunoblotting shows a protein as a band on a membrane.

Data set [6] deals with RARβ. As to the kind of experiment: ChIP-qPCR: RARβ binding to DR5 motif upstream of RARβ and CYP26A1 genes. Format: cell-based. The note with it: HCT116 cells. As for the experimental part:
(§3) NUR77 and RARβ acetylation status was also studied because protein acetylation alters nuclear receptor activity^37. […] To study the effect of RA/butyrate in modulating NUR77 and RARβ transcriptional activity, ChIP-qPCR and RT-PCR were performed to determine receptor binding to transcriptional regulatory regions and mRNA levels of downstream targets, respectively.
(§4) Chromatin immunoprecipitation (ChIP)-qPCR ChIP-qPCR was performed as described previously^21. Briefly, chromatin lysate was precleared before incubation with an anti-H3K9AC antibody (Millipore. Billerica, Mass.), anti-HDAC1 and anti-HDAC4 (Cell signaling technology, Beverly, Mass.) or anti-SIRT1 antibody (Santa Cruz Biotechnology, Santa Cruz, Calif.). IgG (Santa Cruz Biotechnology, Santa Cruz, Calif.) and RNA Polymerase II antibody (Millipore, Billerica, Mass.) were used as negative and positive controls, respectively. Samples were incubated with Dynase beads at 4° C. overnight followed by de-crosslinking and purification. DNA fragments generated served as templates for qPCR using Power SYBR1 Green PCR Master Mix.

Data set [7] relates to retinoic acid receptor beta (RARβ). As to the kind of experiment: RARB expression in HCT116 cells (qRT-PCR). Format: cell-based. Conditions: 24 hours, RA 10 μM, butyrate 5 mM, SAHA 5 μM. On the procedure:
as §1

The subject of data set [8] is RARB and NUR77 genes. In words: ChIP-qPCR: HDAC recruitment and H3K9 acetylation at RARB and NUR77 genes in HCT116 cells. The note with it: RA 10 μM, butyrate 5 mM, SAHA 5 μM. Format: cell-based. As for the experimental part:
Cell lysates were used for ChIP with antibodies specific for HDAC1, HDAC4, SIRT1, or acetylated H3K9, followed by qPCR using primers specific for the RARB and NUR77 genes. DMSO treated cells and IP using IgG were included as negative controls. […]inding was expressed relative to the IgG negative controls.
as §4

Data set [9] deals with NUR77 and RARβ. As to the kind of experiment: Induction and localization of NUR77 and RARβ in HCT116 cells. The format is cell-based. The note with it: 48 hours, RA 10 μM, butyrate 5 mM, SAHA 5 μM, EGF 32 nM. As for the experimental part:
Proteins were immunoprecipitated by anti-NUR77 or anti-RARβ antibodies, or IgG, followed by Western blot using anti-RARβ or anti-NUR77 antibodies.
To study the effect of miR-22 in induction of cytosolic NUR77 by RA/butyrate, adenoviral-delivery of miR-22 inhibitors tagged with green fluorescence (adeno-miR-22 inhibitor-GFP, Applied Biological Materials Inc, Richond, BC) were used to infect HCT116 cells. At 48 hours post adenoviral infection, cells were treated with RA (10 μM) plus butyrate (5 mM) or DMSO for 24 hours. […] Cells were mounted in ProLong® Gold Antifade Reagent with DAPI (4′,6-diamidino-2-phenylindole, Life Technologies, Carlsbad, Calif.) and imaged under Keyence BZ-9000 microscope.

For data set [10], the system named is NUR77. As to the kind of experiment: ChIP-qPCR and RT-PCR: NUR77 binding to BRE and CCND2 and their mRNA. The format is cell-based. Conditions: HCT116 cells. On the procedure:
as §3, §4

The test system of data set [11] is NUR77 and RARβ. In words: Immunoprecipitation/Western blot: protein acetylation of NUR77 and RARβ. The format is cell-based. Conditions: HCT116 cells; IP with anti-NUR77 or anti-RARβ, anti-acetyl lysine blot.
Text: FIG. 12A depicts the expression levels of proteins that were extracted from HCT116 cells and immunoprecipitated by anti-NUR77 and RARβ antibodies or IgG, followed by Western blot using an anti-acetyl lysine antibody. […] The mRNA levels of NUR77 target genes BRE as well as CCND2 and RARβ target genes RARβ and CYP26A1 in HCT116 cells are shown in FIG. 12C.
as §3, §2

In data set [12] the test system is HDAC1, HDAC4, SIRT1, cyclin A2 (CCNA2). As to the kind of experiment: Western blot of protein deacetylases and cyclin A2 in HCT116 cells. Format: cell-based. Conditions: 24 hours, RA 10 μM, butyrate 5 mM, SAHA 5 μM.
Data set [13] has as its system HCT116-generated tumors. As to the kind of experiment: Mouse xenograft tumor model. Format: in vivo, Athymic nude mice. Conditions: adenoviral miR-22 intratumorally. As for the experimental part:
Athymic nude mice (female, 6 weeks old, Jackson Laboratory) were subcutaneously injected by HCT116 cells (1×10^6) in the flank region. When tumor size reached […] of cross-sectional area, a combination of RA plus butyrate or adenoviral-expressing miR-22 (Ad-miR-22) was administered. For RA plus butyrate treatment, mice received RA (2.5 μg/g body weight) and butyrate (1.2 mg/g body weight) intraperitoneally (IP) 5 times a week for 2 weeks. For Ad-miR-22 treatment, mice received Ad-miR-22 (1×10^9 Pfu) intratumorally (IT) twice a week for 2 weeks. Control groups received 1% DMSO in PBS and adenovirus scramble, respectively. Tumor dimensions were measured and tumor volume was calculated using V (volume)=W (width)^2×L (length)/2. All experimental protocols were approved by the University of California Davis Animal Care and Use Committee.

Data set [14] has as its system Class I (HDAC1, 2, 3, and 8) and Class IIa (HDAC4, 5, 7, and 9). Conditions: cited from earlier work.

“Also recorded” adds a separate entry of the source. Read-outs that look alike come from different tables or passages of the source.

Regarding `C=C1CC[C@H](O)C/C1=C/C=C1\CCC[C@]2(C)[C@@H]([C@H](C)CCCC(C)C)CC[C@@H]12` [vitamin D3], the miR-22 induction result in [1] was “induce miR-22”.

Turning to `CCC(=O)[O-].[Na+]` [propionate, sodium propionate], the miR-22 expression level result in data set [2] is listed as “induced; also recorded: increased miR-22 level”. In addition, the Cell viability result in data set [3] was “Markedly reduced cell viability”.

For `C[C@H](CCC(=O)O)[C@H]1CC[C@H]2[C@@H]3[C@H](O)C[C@@H]4C[C@H](O)CC[C@]4(C)[C@H]3CC[C@]12C` [CDCA, chenodeoxycholic acid], the “CYCLIN A2 levels” value is given as “reduced CYCLIN A2 levels; also recorded: repression of cyclin A2” in data set [4] (liver Huh7 cells) and “reduced CYCLIN A2 levels; also recorded: repression of cyclin A2” in [5] (colon HCT116 cells, CDCA treatment or miR-22 mimic transfection). In addition, the results for the miR-22 induction entry in [1] and in data set [1] (listed as chenodeoxycholic acid) were “induces miR-22” and “induce miR-22”, respectively.

In the case of `CCCCC(=O)O` [valerate], the miR-22 expression level entry in data set [2] is listed as “induced; also recorded: increased miR-22 level”. The Cell viability entry in data set [3] was “Markedly reduced cell viability”.

For the compound `O=C(CCCCCCC(=O)Nc1ccccc1)NO` [SAHA, suberanilohydroxamic acid], in data set [6], the “Increase of RARβ binding to the DR5 motif upstream of RARβ and CYP26A1 genes” value is on record as 2.5 folds. Besides, the “RARB (RARβ) expression / transcription” value in data set [7] is “upregulated”. Further, in data set [8] (24 hours), the “H3K9 acetylation of NUR77 and RARβ genes (ChIP-qPCR)” value was “increased H3K9 acetylation”; the “Recruitment of HDAC1, HDAC4, and SIRT1 to the regulatory region of NUR77 and RARβ (ChIP-qPCR)” value is “decreased recruitment of HDAC1, HDAC4, and SIRT1”. In [8], the “Histone acetylation (H3K9Ac) in the gene encoding RARβ (ChIP-qPCR)” value is “increased histone acetylation”; the “Recruitment of HDAC4 and SIRT1 to the RARB gene (ChIP-qPCR)” value was “reduced the recruitment of HDAC4 and SIRT1”. The miR-22 expression level result in data set [2] is reported as “upregulated; also recorded: could induce miR-22; also recorded: induced; also recorded: increased miR-22 level”. The “Induction and localization of NUR77 and RARβ (immunostaining)” value in data set [9] was “markedly induced NUR77 and RARβ”. In addition, the “NUR77 binding to BRE and CCND2 promoter regions and their mRNA levels (NUR77 transcriptional activity)” value in data set [10] is reported as “reduced NUR77 binding”. Besides, the “Acetylated NUR77 and RARβ” value in data set [11] is “increased acetylated NUR77 and RARβ”. Besides, the “Cell viability (MTT assay)” value in data set [3] (24 hours) was “reduced cell viability”. The Cell viability result in data set [3] is listed as “significantly reduced cell viability; also recorded: Markedly reduced cell viability”. Moreover, in data set [12], the “Protein levels of HDAC1, HDAC4, SIRT1, and cyclin A2 (CCNA2)” value is “reduced HDAC1, HDAC4, SIRT1, and CCNA2 protein levels”.

Consider “miR-22: microRNA, SEQ ID NO:1 AAGCUGCCAGUUGAAGAACUGU (listed as RNA, chemistry not fully specified)”, for which the “HDAC1, HDAC4, and SIRT1 levels” value in [4] (liver Huh7 cells treated with miR-22 mimic) is “inhibited multiple HDACs”. Also, the “Protein levels of HDAC1, HDAC4, SIRT1, cyclin A2 after miR-22 (mimic) transfection” value in data set [5] (HCT116 cells, 48 hours after transfection, vs. scramble control) is “inhibited multiple HDACs; also recorded: inhibits HDAC1, HDAC4 and SIRT1; also recorded: HDAC1 protein level was reduced; also recorded: reduced HDAC4 and SIRT1; also recorded: suppress HDAC4 and SIRT1 expression; also recorded: reduces protein deacetylases, including HDAC1”. In addition, the “Acetylated NUR77 and RARβ” value in data set [11] was “increased acetylated NUR77 and RARβ”. In [13], the “HDACs and CCNA2 protein levels in tumors” value was “silenced HDACs and CCNA2”; the “NUR77 and RARβ protein levels in tumors” value was “upregulating NUR77 and RARβ”. Also, the “Colon tumor growth / tumor size” value in data set [13] (xenograft mice) is given as “inhibited colon cancer growth; also recorded: effective in inhibiting the growth of colon cancer; also recorded: remarkable effectiveness”.

Turning to `CC(/C=C/C(=O)NO)=C\[C@@H](C)C(=O)c1ccc(N(C)C)cc1` [trichostatin A], in [14], the “Inhibition of HDAC classes” value is “inhibit Class I (HDAC1, 2, 3, and 8) and Class IIa (HDAC4, 5, 7, and 9)”.

These data come from patent US20190307771A1, “METHODS AND COMPOSITIONS FOR THE TREATMENT OF CANCER AND METABOLIC DISEASES” (THE REGENTS OF THE UNIVERSITY OF CALIFORNIA, priority 2016, published 2019).
